Patent US6933321B2, “Antiandrogenic biphenyls” (Endorecherche, Inc., priority 2002, dated 2005)
Like-named read-outs stand apart in the source and are kept apart here.

Test system: Shionogi mouse mammary carcinoma cells
Test: Antiandrogenic activity on DHT-stimulated Shionogi mouse mammary carcinoma cell number
Assay type: cell-based
Conditions: for A = Ki OH-Flu/Ki compound: ratio of Ki of hydroxyflutamide versus tested compound, higher values preferable
[1] = Mus musculus, inhibition of DHT-stimulated Shionogi cell number, 10-12 days, read-out: Antiandrogenic activity IC50
[2] = inhibition of DHT-stimulated Shionogi cell number

| SMILES | IC50 [1] | A = Ki OH-Flu/Ki compound [2] | IC50 (inhibition of DHT-stimulated Shionogi cell number, 10-12 days, read-out: Antiandrogenic activity IC50) | IC50 (Mus musculus, read-out: Antiandrogenic activity IC50 (nM)) |
| --- | --- | --- | --- | --- |
| N#Cc1ccc(-c2ccc(C#N)c(C(F)(F)F)c2)c([N+](=O)[O-])c1 [EM-4253] | > 500 nM | <0.2 | – | – |
| N#Cc1ccc(-c2cc(F)c(F)c(F)c2)cc1C(F)(F)F [EM-4116] | > 500 nM | <0.2 | – | – |
| N#Cc1ccc(-c2cc(NC(=O)c3ccc(Cl)cc3)c(F)cc2C(N)=O)cc1C(F)(F)F [EM-5003] | > 500 nM | <0.2 | – | – |
| N#Cc1ccc(-c2ccc(F)cc2C(=O)Nc2ccc(Cl)cc2)cc1C(F)(F)F [EM-5086] | – | <0.2 | > 500 nM | – |
| N#Cc1ccc(-c2cc([N+](=O)[O-])c(F)cc2F)cc1C(F)(F)F [EM-4867] | > 500 nM | <0.2 | – | – |
| N#Cc1ccc(-c2ccc(F)cc2F)cc1C(F)(F)F [EM-3975] | 131 nM | 0.77 | – | – |
| N#Cc1ccc(-c2ccc(Br)cc2C(F)(F)F)cc1[N+](=O)[O-] [EM-4792] | > 500 nM | <0.2 | – | – |
| CC(=O)Nc1ccc(-c2ccc(C#N)c(C(F)(F)F)c2)cc1 [EM-4243] | > 500 nM | <0.2 | – | – |
| CN(C)C(=O)Nc1ccc(-c2ccc(C#N)c(C(F)(F)F)c2)cc1 [EM-4206] | > 500 nM | <0.2 | – | – |
| N#Cc1ccc(-c2ccc(N)cc2)cc1 [EM-4049] | > 500 nM | <0.2 | – | – |
| N#Cc1ccc(-c2ccc([N+](=O)[O-])c(C(F)(F)F)c2)cc1 [EM-4180] | – | <0.2 | – | > 500 nM |
| N#Cc1ccc(-c2ccc(C#N)c(C(F)(F)F)c2)cc1C(F)(F)F [EM-4012] | > 500 nM | <0.2 | – | – |
| CN(C)c1ccc(NC(=O)c2cc(F)ccc2-c2ccc(C#N)c(C(F)(F)F)c2)cc1 [EM-5083] | > 500 nM | <0.2 | – | – |
| N#Cc1ccc(-c2ccc(N)cc2C(F)(F)F)cc1C(F)(F)F [EM-4154] | 145 nM | 0.7 | – | – |
| CC(=O)Nc1cc(-c2ccc(C#N)c(C(F)(F)F)c2)c(C(N)=O)cc1F [EM-5002] | > 500 nM | <0.2 | – | – |
| N#Cc1cc(-c2ccc(C#N)c(C(F)(F)F)c2)ccc1F [EM-4056] | > 500 nM | <0.2 | – | – |
| Cc1ccc(-c2ccc(C#N)c(C(F)(F)F)c2)c(C(F)(F)F)c1 [EM-4185] | 193 nM | 0.7 | – | – |
| N#Cc1ccc(-c2ccc(F)cc2C(F)(F)F)cc1C(F)(F)F [EM-4296] | > 500 nM | <0.2 | – | – |
| CCOc1ccc(-c2ccc(C#N)c(C(F)(F)F)c2)c(C(N)=O)c1 [EM-4925] | > 500 nM | <0.2 | – | – |
| N#Cc1ccc(-c2ccc(C#N)c(C(F)(F)F)c2)c(F)c1 [EM-4189] | 132 nM | 1.1 | – | – |
| N#Cc1ccc(-c2cc(F)cc(F)c2)cc1C(F)(F)F [EM-3974] | > 500 nM | <0.2 | – | – |
| N#Cc1cccc(-c2ccc(C#N)c(C(F)(F)F)c2)c1 [EM-3729] | > 500 nM | <0.2 | – | – |
| N#Cc1ccc(-c2ccc(F)cc2C(=O)N2CCCC2)cc1C(F)(F)F [EM-5014] | > 500 nM | <0.2 | – | – |
| CS(=O)(=O)c1cc(-c2ccc(F)cc2F)ccc1C#N [EM-4292] | > 500 nM | <0.2 | – | – |
| N#Cc1ccc(-c2ccc(C#N)c(C(F)(F)F)c2)cc1Cl [EM-4108] | 112 nM | 0.6 | – | – |
| COc1ccc(-c2ccc([N+](=O)[O-])cc2)cc1 [EM-3234] | > 500 nM | <0.2 | – | – |
| N#Cc1ccc(-c2ccc(Cl)c(C(F)(F)F)c2)cc1 [EM-4248] | > 500 nM | <0.2 | – | – |
| CSc1ccc(-c2ccc(C#N)c(C(F)(F)F)c2)cc1 [EM-3732] | > 500 nM | <0.2 | – | – |
| COc1ccc(-c2ccc(C#N)cc2)cc1 [EM-3704] | > 500 nM | <0.2 | – | – |
